Entries after “also recorded” stand apart in the source; their conditions may differ.
Legend:
[1] = system: blood pressure; test: Infusion dosage required to achieve a given lowering of the blood pressure in a cat under Nembutal narcosis (Table I, FIG. 4); type: in vivo; set-up: key to Infusion dosage required for lowering of blood pressure (symbol): *: Limit of activity and/or predominance of toxic side effects; settings: for Infusion dosage required for lowering of blood pressure / Infusion dosage required for lowering of blood pressure (symbol): i.v. infusion
Protocol: This is evident, for example, from the following experiment:
The various infusion solutions listed below were infused i.v. in succession, with appropriate recovery intervals, into a male, spontaneously respiring cat weighing 3.7 kg under Nembutal narcosis, and the dosages required to achieve a given lowering of the blood pressure were determined.
For the preparation of the infusion solutions, the substances or their concentrated stock solutions were diluted with 0.9% sodium chloride solution to a uniform infusion strength of 9 mg/100 ml (90 ug/ml). All solutions were freshly prepared and infused with the exclusion of light (aluminium foil) corresponding to the dosages given below.
The values given in Table I hereinafter were determined graphically.
FIG. 4, a comparison of equieffective doses of A, B, C, D and E, is derived from the figures in Table I, and further indicates the unobvious superiority of infusion solutions having a weight ration of less than 1:10 of the salts.
On the Y-axis, the weight percent of the trimethaphan ion in trimethaphan camsylate needed to achieve the indicated level of hypotension reduction is always set at 100% for each level, indicating the infusion solution of C. The X-axis measures the weight of nitroprusside ion expressed as a weight percent of the trimethaphan ion needed; B, having no trimethaphan, is set at 0 weight percent. The percents for A, D, and E are as indicated.
The hypotenuse of the triangle indicates the hypotensive effect expected to result from using mixtures of nitroprusside and trimethaphan ions. […] The lower and more to the left the values are, the higher the degree of synergism.

[2] = system: patients; settings: infusion in patients; listed as TMC; cited from earlier work
[3] = Solubility of SNP, TMC, TNP and mixtures (Example 10); type: physicochemical; settings: for amount of solvent giving clear solution: 22° C., SNP 50 mg, TMC 250 mg; for solubility of mixtures / TNP: borderline amount of solvent: 50 + 500 mg (1 + 10)
Protocol: At room temperature (22° C.) clear solutions were obtained in the following solvents from the following compounds: […]

[4] = system: blood pressure; settings: TMC; cited from earlier work
[5] = Solubility / dissolution of I and of mixtures of I and sodium thiosulphate pentahydrate; type: physicochemical; settings: for solubility in weaker ethanol: weaker than 50% ethanol
Protocol: Mixtures of I and thiosulphate must not however, be heated in solution above 50° C., since otherwise the trimethaphan cation can decompose.
Therefore, the problem arose to find a physiologically acceptable solvent in which a mixture of I and thiosulphate in the weight ratio of about 1:1 to about 1:40 can dissolve to at least 5-10%, in a temperature range which for practical reasons should embrace temperatures between about 15° C. and about 35° C. Moreover, the concentrated solution should be able to dissolve without problem in the amount (250-1000 ml) of physiological sodium chloride solution or isotonic (5%) glucose solution required for final dilution.
For example, the mixture of 50 mg of I and 1000 mg of sodium thiosulphate pentahydrate dissolved

[6] = system: rats; settings: i.v.; cited from earlier work
[7] = Solubility of (+)-bis-(trimethaphan)-nitroprusside and its semihydrate (Example 1); type: physicochemical
From the text: (§1) The semihydrate forms compact needles from water (1/2H2 O calculated 0.94%, found 1.00%). […] Its solubility in water is 0.2% at room temperature. Its solubility in 60% ethanol is much better, and is about 3% at room temperature.

[8] = type: physicochemical; settings: room temperature; for storability: light excluded
Protocol: as §1
For the preparation of an infusion solution, the ampoule contents are dissolved in at least 220, at most 900 ml of sterile 0.9% sodium chloride solution or 5% glucose solution by vigorous shaking for a short time, whereafter the volume is brought to 250, 500 or 1000 ml. The infusion vessels and tubes are either to be covered with aluminum foil or must consist of material which is opaque to light.
50 mg of finely pulverized (+)-bis-(trimethaphan)-nitroprusside are filled into a sterilized, brown 5 ml flask closable with a synthetic stopper. 3 ml of 60% ethanol are sealed in a solvent ampoule and sterilized. […] Immediately before use the solid substance is dissolved in the solvent and the thus-obtained stock solution is used for the preparation of the infusion solution.

## O=C1N(Cc2ccccc2)C2C[S+]3CCCC3C2N1Cc1ccccc1 (stereo not shown) [C, trimethaphan camsylate, reference compound]
[1]; -20 mm Hg, cat
  Infusion dosage required for lowering of blood pressure: 6.0 ug/kg · min
[1]; -30 mm Hg, cat
  Infusion dosage required for lowering of blood pressure: 18 ug/kg · min
[1]; -40 mm Hg, cat
  Infusion dosage required for lowering of blood pressure: 55 ug/kg · min
[1]; -50 mm Hg, cat
  Infusion dosage required for lowering of blood pressure (symbol): *
[1]; -55 mm Hg, cat
  Infusion dosage required for lowering of blood pressure (symbol): *
[1]; -75 mm Hg, cat
  Infusion dosage required for lowering of blood pressure (symbol): *
[1]; cat, comparison among A to E
  activity compared with other test substances (in words): significantly less active
[1]; lowering of blood pressure, cat
  limit of activity: -40 mm Hg
[2]
  side effects: tachycardia, mydriasis, cycloplegia, urine retention, xerostomia and constipation; also recorded: nausea or vomiting; also recorded: allergies
[3]; 5% dextrose
  amount of solvent giving clear solution: 10 mL
[3]; 40% ethanol
  amount of solvent giving clear solution: 10 mL
[3]; 60% ethanol
  amount of solvent giving clear solution: 2 mL
[3]; water
  amount of solvent giving clear solution: 10 mL
[4]
  dosage required for the controlled lowering of blood pressure: about 30 ug/kg or more per minute

## O=S([O-])([O-])=S.[Na+].[Na+] [sodium thiosulphate, reference compound]
[5]; especially at temperatures <50° C.
  solubility in over 40% ethanol: only very limited solubility
[5]
  solubility in weaker ethanol: better solubility
[6]
  LD50: 2500 mg/kg

## (+)-bis-/(3aS,8aR,8bR)-1,3-dibenzyldecahydro-2-oxoimidazo[4,5-c]thieno[1,2-a]thiolium/nitrosylpentacyano-ferrate
[1]; -20 mm Hg, cat
  Infusion dosage required for lowering of blood pressure: 1.5 ug/kg · min
[1]; -30 mm Hg, cat
  Infusion dosage required for lowering of blood pressure: 2.3 ug/kg · min
[1]; -40 mm Hg, cat
  Infusion dosage required for lowering of blood pressure: 3.5 ug/kg · min
[1]; -50 mm Hg, cat
  Infusion dosage required for lowering of blood pressure: 5.8 ug/kg · min
[1]; -55 mm Hg, cat
  Infusion dosage required for lowering of blood pressure: 7.8 ug/kg · min
[1]; -75 mm Hg, cat
  Infusion dosage required for lowering of blood pressure: 40 ug/kg · min
[1]; compared with all the other substances or mixtures
  limit of activity (in words): significantly higher limit of activity than all the other substances or mixtures
[1]; slight lowering of the blood pressure (to -30 mm Hg)
  strength of activity (in words): approximately comparable strengths of activity; also recorded: shows up best
[7]; aqueous ethanol
  solubility in aqueous ethanol: dissolves readily
[7]; water, absolute ethanol and cyclohexane
  solubility in water, absolute ethanol and cyclohexane: only very slightly soluble
[8]
  storability: can be stored for a very long time

## bis-(trimethaphan)-nitroprusside
[1]; nitroprusside and trimethaphan ions in molar ratio 1:2, FIG. 4 / Table I
  synergistic activity: maximum synergistic activity
[5]; ethanol-water, room temperature (22° C.), FIG. 1
  ethanol concentration required for concentrated stock solution: at least 40%
[5]; water
  solubility in water (in words): poorly soluble in water
[5]
  solubility in weaker ethanol: no longer completely soluble
[3]; 5% dextrose, 125 + 500 mg (1 + 4), TNP 40 mg (highly purified product)
  solubility of mixtures / TNP: borderline amount of solvent: 100 mL
[3]; 40% ethanol, TNP 40 mg
  solubility of mixtures / TNP: borderline amount of solvent: 25 mL
[3]; 60% ethanol, 125 + 500 mg (1 + 4), TNP 40 mg
  solubility of mixtures / TNP: borderline amount of solvent: 2 mL
[8]
  storability: can be stored without further additives

## bis-(trimethaphan)-nitroprusside semihydrate
[7]; room temperature
  solubility in 60% ethanol: about 3%
  solubility in water: 0.2%
[8]
  stability at storage: stable
  water loss at storage: does not lose water

Reference: patent publication US4721707A, “Complex salt” (priority 1982, dated 1988)
